“Also recorded” adds a separate entry of the source.
Legend:
[1] = test system: senescence-associated β-galactosidase in salivary gland cell clusters (SGm); assay: Cellular senescence assay (SPiDER-βGal) in salivary gland tissue chip, 5 days post-radiation (15 Gy); also second screen of library hits at 100 μM; type: cell-based, mouse; details: for double hit in the drug screen: glutathione and senescence assays, 100 μM, statistically similar to 0 Gy; for Estimated EC50, Senescence: nonlinear fit in Prism of dose response curves; for Estimated EC50, Senescence / radioprotection in dose response, senescence assay / protection against radiation-induced senescence: 15 Gy; for protection against radiation-induced senescence: 5 days post-radiation; as to Senescence (radioprotection): key: +: radioprotection; ~: partial radioprotection; —: no radioprotection
From the text: The chip platform consists of an array of near-spherical microbubble (MB) cavities formed in poly(dimethylsiloxane) (PDMS). Each chip, containing ~50 MBs, affixed within wells of a 96-well plate (FIG. 1C). Primary salivary gland cell clusters (FIG. 1A), suspended in a poly(ethylene glycol) (PEG) hydrogel precursor and MMP-degradable peptide crosslinker solution together with the photoinitiator LAP, were applied to the chip allowing the clusters to deposit into the MBs (FIG. 1D). In situ polymerization of the hydrogel was achieved using long-wave, low intensity UV light. Over time, the cell clusters aggregate and proliferate to form SGm (FIG. 1C).
For senescence, a protocol similar to the glutathione assay was followed to determine the optimal time point post-radiation for detecting a change in senescence between 0 Gy and 15 Gy, as measured by senescence-associated β-galactosidase activity.
The glutathione and senescence assays were used to screen a library of FDA-approved drugs (Selleck Chemicals) at 100 μM. Drugs were first screened using the glutathione assay according to the timeline depicted in FIG. 2A. […] Hits with the glutathione assay were then tested with the senescence assay and considered a “double hit” if senescence levels were statistically similar to levels at 0 Gy (FIG. 4, black circles).
Mice were euthanized and the submandibular glands (SMG) were removed and chopped with a razor blade for 5 min. […] Cells were centrifuged, then resuspended in HBSS with 15 mM HEPES and passed through 100 μm and 20 μm mesh filters to isolate clusters between 20-100 μm. […] The isolated clusters were combined with hydrogel precursor solution and seeded in MB array-based chips as described below.
The cell/gel precursor solution (25 μL for 48 well; 20 μL for 96 well) was pipetted onto the MB chips and incubated for 30 min, pipetting every 10 min to redisperse cells that had settled onto the surface of the chip.
A cellular senescence assay for the chips was developed by adapting the Cellular Senescence Detection Kit—SPiDER-βGal (Dojindo Molecular Technologies, Inc. SG04). Bafilomycin A1 and SPiDER-βGal stock solutions were prepared in DMSO per manufacturer directions. The assay was performed by first incubating the chips with bafilomycin A1 (1:1000 dilution in media) for 1 hr at 37 °C. […] Chips were washed twice with media and imaged using a fluorescence microscope with a Texas Red filter (Excitation: 580 nm; Emission: 604 nm).
For radioprotection experiments, SGm were cultured in MB-hydrogel chips for 4 days, then drugs were added to the chips 30 min prior to irradiation and washed out with media 30 min post-radiation treatment. […] The glutathione and senescence assays were performed at 4- and 5-days post-radiation. For assay validation experiments, at least 3 chips (N=3) were used for each drug, corresponding to >100 MBs (n>100); these values are listed in the figure description for each experiment. Mean, standard deviation, and statistics were calculated based on the number of MBs (n).
For screening of the Selleck Chemicals compound library, the same treatment scheme was used, with drugs administered at 100 μM. One MB chip (N=1) was used per compound, with ~40-50 MBs per chip […]; statistics were calculated using the number of MBs (n) and compared to 0 Gy controls.
For both the glutathione and cellular senescence assays, images were quantified in ImageJ.

[2] = test system: γH2AX foci per nucleus in mouse submandibular gland; assay: In vivo radioprotection of mouse salivary gland: γH2AX foci per nucleus (IHC) 48 hours after 15 Gy, retroductal injection
Procedure: Female SKH1 hairless mice, backcrossed 6 generations with C57BL/6J mice, aged 6-12 weeks were used in this study for in vitro assay development and drug discovery. Female C57BL/6J mice age 6-8 weeks were used for in vivo validation studies. […] Animals were maintained on a 12 hr light/dark cycle and group-housed with food and water available ad libitum.
Briefly, 6-10 week old female C57Bl/6 J mice were anesthetized by intraperitoneal injection of sterile saline solution of 100 mg/kg ketamine and 10 mg/kg xylazine. Maxillary incisors were secured over a metal beam, while an elastic band provided tension from behind the mandibular incisors. The mouth was widened using a custom steel retractor to apply pressure to the buccal mucosa and the tongue was retracted and cotton placed in the oral cavity. The wire inset of a 32 G intracranial catheter was cut at […] to create a bevel. The beveled wire created a shallow puncture in the left salivary papilla. A beveled catheter section containing the wire insert for support was gently inserted into the puncture site. The catheter was removed, and 1 mg/kg atropine was administered by intraperitoneal injection. After 10 min, the needle of a Hamilton syringe, loaded with vehicle or drug solution, was inserted into the catheter, and the catheter was inserted into the orifice produced in the papilla. Drug solutions were injected by hand at 10 μl/min at a volume of 1 μl/g of body weight. Following injection, the pressure was maintained on the syringe for 1 min to ensure material retention before removal of the catheter.
The head and neck region was positioned over the slit of a custom collimator, which allowed body shielding.
Submandibular glands and SGm were isolated and fixed in 4% paraformaldehyde overnight at 4 °C. Tissues were paraffin-embedded and then cut into […] sections. […] Permeabilization was performed with 0.5% Triton X-100 in PBS for 5 minutes. […] Following a PBS rinse, […] DAPI (Invitrogen, Carlsbad, CA) in PBS was applied to sections for 5 minutes. Sections were washed thrice in PBS for 5 minutes and the slides were mounted using Immu-Mount mounting medium (Thermo). Microscopic images were acquired using a Leica TCS SP5 confocal microscope with a 100× oil immersion objective and Argon laser. Analysis of images was performed in ImageJ.

lymphocyte cells = details: cited from earlier work
[3] = in vivo; cited from earlier work
COX-2 = details: role: inhibitor; cited from earlier work
[4] = in vivo; cited from earlier work; remark: listed apart in the source
COX-1 = details: role: inhibitor; cited from earlier work
[5] = phenylbutazone 50 mg/kg, corn oil

In the case of CCn1cc(C(=O)O)c(=O)c2cc(F)c(N3CCNCC3)nc21 [Enoxacin (Penetrex)], the “double hit in the drug screen” value [1] is reported as “double hits”, the “Estimated EC50, Senescence” value [1] is reported as 0.5 µM and the “reduction in γH2AX foci per nucleus compared to 15 Gy controls” value (“reduction in γH2AX foci per nucleus” below) ([2]; enoxacin 0.3 mg/kg) is reported as 0.5 fold. For the same molecule, the “increase in γH2AX foci per nucleus” value ([2]; enoxacin 0.3 mg/kg, comparator not given) was 1.6 fold, the EC50 (lymphocyte cells; radioprotection, read-out: EC50, viability of lymphocyte cells) was 13 µM and the “radioprotection of lymphocytes” value (lymphocyte cells; viability of lymphocytes as primary readout) was “robust radioprotectors”.
In the case of CCCCC1C(=O)N(c2ccccc2)N(c2ccccc2)C1=O [Phenylbutazone], the “radioprotection in dose response, senescence assay” value [1] is given as “only partial protection”, the “Estimated EC50, Senescence” value [1] is given as 0.05 µM and the bioavailability [3] is given as “up to 90%”. For the same molecule, the half-life [3] was 50 to 105 h, the “reduction in γH2AX foci per nucleus” value [2, 5] was 0.4 fold and the “γH2AX foci per nucleus versus 0 Gy controls” value [2, 5] was “not significantly different from 0 Gy controls”. The “COX-2 inhibition” value (COX-2) was “inhibits”, the “adverse effects” value [4] was “rare but severe blood disorders, including anemia and leukopenia” and the “COX-1 inhibition” value (COX-1) was “inhibits”.
For NCCCNCCS [WR-1065], the “Senescence (radioprotection)” value ([1]; 1 mM) was “+”, the “protection against radiation-induced senescence” value ([1]; 1 mM) was “complete radioprotection” and the “Senescence (radioprotection)” value ([1]; 4 mM) was “+”. The “protection against radiation-induced senescence” value ([1]; 4 mM) was “complete radioprotection; also recorded: restored to levels equivalent to 0 Gy”, the “reduction in γH2AX foci per nucleus” value ([2]; WR-1065 50 mg/kg) was 0.5 fold and the “γH2AX foci per nucleus versus 0 Gy controls” value ([2]; WR-1065 50 mg/kg) was “No significant differences”.
With Doripenem hydrate the “radioprotection in dose response, senescence assay” value [1] was “variable protection”, the “double hit in the drug screen” value [1] was “double hits” and the “Estimated EC50, Senescence” value [1] was 16.4 µM. The “increase in γH2AX foci per nucleus compared to 0 Gy controls” value ([2]; doripenem hydrate 26 mg/kg) was 2.7 fold and the “reduction of γH2AX foci per nucleus relative to 15 Gy controls” value ([2]; doripenem hydrate 26 mg/kg) was “did not reduce”.

Source: patent US20260345555A1, “Compositions and Methods for Protecting Salivary Glands from Off-Target Radiation Damage” (University of Rochester, priority 2022, published 2026)
